pIC50: −log10 of the molar value.
What was measured:
[1] = biological target: T1, human orexin-1 receptor (hOX1R) (Homo sapiens, UniProt O43613); assay: Measurement of orexin antagonistic activity (intracellular Ca2+ fluorescence, FDSS) on hOX1R; format: cell-based; settings: CHO cells forcibly expressing hOX1R; Fluo-4AM; ligand peptide (substituted human orexin-A) 300 pM; compound preincubated 30 minutes; read-out: IC50 Value OX1
T1 construct: expressed in transfected cells; host or cells: Chinese hamster ovary (CHO) cells
T1 sequence (O43613 1-425): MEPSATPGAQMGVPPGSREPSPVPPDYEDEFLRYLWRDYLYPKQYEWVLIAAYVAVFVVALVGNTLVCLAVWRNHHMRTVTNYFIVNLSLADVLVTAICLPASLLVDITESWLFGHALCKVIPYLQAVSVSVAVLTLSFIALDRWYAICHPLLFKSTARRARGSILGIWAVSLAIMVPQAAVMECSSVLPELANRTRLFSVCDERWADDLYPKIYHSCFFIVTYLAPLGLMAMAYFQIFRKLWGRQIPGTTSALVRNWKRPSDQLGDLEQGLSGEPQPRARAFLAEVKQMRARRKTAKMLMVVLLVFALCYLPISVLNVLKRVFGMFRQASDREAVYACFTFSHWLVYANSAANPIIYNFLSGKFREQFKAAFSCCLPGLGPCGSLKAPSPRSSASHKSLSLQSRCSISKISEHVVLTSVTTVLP
Protocol: (§1) The antagonistic activities of the test compounds on human orexin-1 receptor (hOX1R) and orexin-2 receptor (hOX2R) were measured by modifying from the method described in literature (Toshikatsu Okumura et al., Biochemical and Biophysical Research Communications, 280, 976-981, 2001). Chinese hamster ovary (CHO) cells forcibly expressing the hOX1R and hOX2R were seeded into a 96 well Black clear bottom plate (Nunc) at 20,000 cells per well, which were cultured in Ham's F-12 medium containing 0.1 mM MEM non-essential amino acids, 0.5 mg/mL G418, 10% fetal bovine serum (all by Invitrogen) for 16 hours under the conditions of 37° C., 5% CO2. After removing the medium, 100 μL of 0.5 μM Fluo-4AM ester (Dojin) in an assay buffer (25 mM HEPES (Dojin), Hank's balanced salt solution (Invitrogen), 0.1% bovine serum albumin, 2.5 mM probenecid, 200 μg/mL Amaranth (all by Sigma-Aldrich), pH 7.4) was added and the cells were incubated for 60 minutes at 37° C., 5% CO2. After removing the assay buffer containing fluo-4AM ester, the test compound was dissolved in dimethyl sulfoxide to be 10 mM and diluted with the assay buffer, 150 μL, of which was added and incubated for 30 minutes.
(§2) The reaction was measured for the fluorescence intensity of each well every second for 3 minutes using Functional Drug Screening System (FDSS; Hamamatsu Photonics K.K.), and the antagonistic activity was determined using the maximum fluorescence intensity as the indicator of intracellular Ca2+ concentration.

[2] = biological target: T2, orexin-2 receptor (hOX2R) (Homo sapiens, UniProt O43614); assay: Measurement of orexin antagonistic activity (intracellular Ca2+ fluorescence, FDSS) on hOX2R; format: cell-based; settings: CHO cells forcibly expressing hOX2R; Fluo-4AM; ligand peptide (substituted human orexin-A) 3 nM; compound preincubated 30 minutes; read-out: IC50 Value OX2
T2 construct: expressed in transfected cells; host or cells: Chinese hamster ovary (CHO) cells
T2 sequence (O43614 1-444): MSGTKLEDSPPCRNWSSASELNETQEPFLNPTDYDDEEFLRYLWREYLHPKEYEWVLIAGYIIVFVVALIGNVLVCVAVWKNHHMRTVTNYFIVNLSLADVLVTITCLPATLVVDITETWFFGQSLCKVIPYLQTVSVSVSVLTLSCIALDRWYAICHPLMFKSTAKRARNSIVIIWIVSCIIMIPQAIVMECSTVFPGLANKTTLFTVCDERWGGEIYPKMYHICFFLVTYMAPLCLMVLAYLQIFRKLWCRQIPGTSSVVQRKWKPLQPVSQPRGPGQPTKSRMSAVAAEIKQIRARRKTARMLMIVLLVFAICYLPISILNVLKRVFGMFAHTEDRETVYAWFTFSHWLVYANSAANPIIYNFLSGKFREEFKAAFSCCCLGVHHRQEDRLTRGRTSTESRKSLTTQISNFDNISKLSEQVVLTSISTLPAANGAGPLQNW
Protocol: as §1, §2

| pIC50 [1] | pIC50 [2] | Structure (SMILES) |
| --- | --- | --- |
| 8.01 | 6.48 | CCN(C(=O)c1cc(F)ccc1-c1ncccn1)[C@@H](C)Cn1cc(-c2ccc(F)cn2)cn1 [Example 34, N-Ethyl-5-fluoro-N-{(2S)-1-[4-(5-fluoropyridin-2-yl)-1H-pyrazol-1-yl]propan-2-yl}-2-(pyrimidin-2-yl)benzamide] |
| 8.47 | 7.20 | CCN(C(=O)c1cc(C)ccc1-c1ncccn1)[C@@H](C)Cn1cc(-c2ccc(F)cn2)cn1 [Example 35, N-Ethyl-N-{(2S)-1-[4-(5-fluoropyridin-2-yl)-1H-pyrazol-1-yl]propan-2-yl}-5-methyl-2-(pyrimidin-2-yl)benzamide] |
| 8.17 | 6.67 | CCN(C(=O)c1cc(F)ccc1-n1nccn1)[C@@H](C)Cn1cc(-c2ccc(F)cn2)cn1 [Example 36, N-Ethyl-5-fluoro-N-{(2S)-1-[4-(5-fluoropyridin-2-yl)-1H-pyrazol-1-yl]propan-2-yl}-2-(2H-1,2,3-triazol-2-yl) benzamide] |
| 8.15 | 7.08 | CCN(C(=O)c1cc(Cl)ccc1-c1ncccn1)[C@@H](C)Cn1cc(-c2ccc(F)cn2)cn1 [Example 37, 5-Chloro-N-ethyl-N-{(2S)-1-[4-(5-fluoropyridin-2-yl)-1H-pyrazol-1-yl]propan-2-yl}-2-(pyrimidin-2-yl) benzamide] |
| 7.59 | 6.46 | COCCN(C(=O)c1cc(C)ccc1-n1nccn1)[C@@H](C)Cn1cc(-c2ccc(F)cn2)cn1 [Example 38, N-{(2S)-1-[4-(5-Fluoropyridin-2-yl)-1H-pyrazol-1-yl]propan-2-yl}-N-(2-methoxyethyl)-5-methyl-2-(2H-1,2,3-triazol-2-yl)benzamide] |
| 8.92 | 8.26 | COCCN(C(=O)c1cc(C)ccc1-n1nccn1)[C@@H](C)Cn1ccc(-c2ccc(F)cc2)n1 [Example 39, N-{(2S)-1-[3-(4-Fluorophenyl)-1H-pyrazol-1-yl]propan-2-yl}-N-(2-methoxyethyl)-5-methyl-2-(2H-1,2,3-triazol-2-yl)benzamide] |
| 8.85 | 7.91 | COCCN(C(=O)c1cc(C)ccc1-n1nccn1)[C@@H](C)Cn1ccc(-c2ccc(F)cn2)n1 [Example 40, N-{(2S)-1-[3-(5-Fluoropyridin-2-yl)-1H-pyrazol-1-yl]propan-2-yl]}-N-(2-methoxyethyl-5-methyl-2-(2H-1,2,3-triazol-2-yl)benzamide] |
| 7.51 | 7.06 | Cc1ccc(-n2nccn2)c(C(=O)N(CCO)[C@@H](C)Cn2cc(-c3ccc(F)cn3)cn2)c1 [Example 41, N-{(2S)-1-[4-(5-Fluoropyridin-2-yl)-1H-pyrazol-1-yl]propan-2-yl}-N-(2-hydroxyethyl)-5-methyl-2-(2H-1,2,3-triazol-2-yl)benzamide] |
| 8.96 | 7.66 | Cc1ccc(-n2nccn2)c(C(=O)N(CCO)[C@@H](C)Cn2ccc(-c3ccc(F)cc3)n2)c1 [Example 42, N-{(2S)-1-[3-(4-Fluorophenyl)-1H-pyrazol-1-yl]propan-2-yl}-N-(2-hydroxyethyl)-5-methyl-2-(2H-1,2,3-triazol-2-yl)benzamide] |
| 8.46 | 7.87 | Cc1ccc(-n2nccn2)c(C(=O)N(CCO)[C@@H](C)Cn2cc(-c3ccc(F)cc3)cn2)c1 [Example 43, N-{(2S)-1-[4-(4-Fluorophenyl)-1H-pyrazol-1-yl]propan-2-yl}-N-(2-hydroxyethyl)-5-methyl-2-(2H-1,2,3-triazol-2-yl)benzamide] |
| 8.89 | 7.59 | Cc1ccc(-n2nccn2)c(C(=O)N(CCO)[C@@H](C)Cn2ccc(-c3ccc(F)cn3)n2)c1 [Example 44, N-{(2S)-1-[3-(5-Fluoropyridin-2-yl)-1H-pyrazol-1-yl]propan-2-yl}-N-(2-hydroxyethyl)-5-methyl-2-(2H-1,2,3-triazol-2-yl)benzamide] |
| 8.48 | 7.12 | Cc1ccc(-n2nccn2)c(C(=O)N(C)[C@@H](C)Cc2noc(-c3ccc(F)cn3)n2)c1 [Example 45, N-{(2S)-1-[5-(5-Fluoropyridin-2-yl)-1,2,4-oxadiazol-3-yl]propan-2-yl}-N,5-dimethyl-2-(2H-1,2,3-triazol-2-yl)benzamide] |
| 9.10 | 8.02 | CCN(C(=O)c1cc(C)ccc1-n1nccn1)[C@@H](C)Cc1noc(-c2ccc(F)cn2)n1 [Example 47, N-Ethyl-N-{(2S)-1-[5-(5-fluoropyridin-2-yl)-1,2,4-oxadiazol-3-yl]propan-2-yl}-5-methyl-2-(2H-1,2,3-triazol-2-yl) benzamide] |
| 9.05 | 7.55 | CCN(C(=O)c1cc(C)ccc1-c1ncccn1)[C@@H](C)Cc1noc(-c2ccc(F)cn2)n1 [Example 48, N-Ethyl-N-{(2S)-1-[5-(5-fluoropyridin-2-yl)-1,2,4-oxadiazol-3-yl]propan-2-yl}-5-methyl-2-(pyrimidin-2-yl)benzamide] |
| 8.96 | 7.49 | CCN(C(=O)c1nc(C)ccc1-n1nccn1)[C@@H](C)Cc1noc(-c2ccc(F)cc2)n1 [Example 49, N-Ethyl-N-{(2S)-1-[5-(4-fluorophenyl)-1,2,4-oxadiazol-3-yl]propan-2-yl}-6-methyl-3-(2H-1,2,3-triazol-2-yl)pyridine-2-carboxamide] |
| 9.10 | 7.77 | CCN(C(=O)c1cc(F)ccc1-n1nccn1)[C@@H](C)Cc1noc(-c2ccc(F)cc2)n1 [Example 50, N-Ethyl-5-fluoro-N-{(2S)-1-[5-(4-fluorophenyl)-1,2,4-oxadiazol-3-yl]propan-2-yl}-2-(2H-1,2,3-triazol-2-yl) benzamide] |
| 9.70 | 8.03 | CCN(C(=O)c1ccccc1-n1nccn1)[C@@H](C)Cc1noc(-c2ccc(F)cc2)n1 [Example 51, N-Ethyl-N-{(2S)-1-[5-(4-fluorophenyl)-1,2,4-oxadiazol-3-yl]propan-2-yl}-2-(2H-1,2,3-triazol-2-yl)benzamide] |
| 8.04 | 6.43 | CCN(C(=O)c1nc(C)ccc1-c1ncccn1)[C@@H](C)Cc1noc(-c2ccc(F)cc2)n1 [Example 52, N-Ethyl-N-{(2S)-1-[5-(4-fluorophenyl)-1,2,4-oxadiazol-3-yl]propan-2-yl}-6-methyl-3-(pyrimidin-2-yl)pyridine-2-carboxamide] |
| 8.18 | 7.12 | CCN(C(=O)c1cc(F)ccc1-c1ncccn1)[C@@H](C)Cc1noc(-c2ccc(F)cc2)n1 [Example 53, N-Ethyl-5-fluoro-N-{(2S)-1-[5-(4-fluorophenyl)-1,2,4-oxadiazol-3-yl]propan-2-yl}-2-(pyrimidin-2-yl) benzamide] |
| 8.70 | 7.12 | CCN(C(=O)c1ccccc1-c1ncccn1)[C@@H](C)Cc1noc(-c2ccc(F)cc2)n1 [Example 54, N-Ethyl-N-{(2S)-1-[5-(4-fluorophenyl)-1,2,4-oxadiazol-3-yl]propan-2-yl}-2-(pyrimidin-2-yl)benzamide] |
| 8.85 | 8.03 | CCN(C(=O)c1cc(C)ccc1-c1ncccn1)[C@@H](C)Cc1noc(-c2ccc(F)cc2)n1 [Example 55, N-Ethyl-N-{(2S)-1-[5-(4-fluorophenyl)-1,2,4-oxadiazol-3-yl]propan-2-yl}-5-methyl-2-(pyrimidin-2-yl)benzamide] |
